Where two headings read alike, the source gives them in different places.
Key:
living monkey eye = settings: in vivo
[1] = tested on: bovine aortic endothelial cells; assay: Actin filaments and C-C adhesions in cultured endothelial cells; format: cell-based
living monkey eyes [2] = assay: Slit lamp biomicroscopy (ocular tolerability); format: in vivo, cynomolgus monkeys (Macaca fascicularis)
Procedure: e) Ocular Tolerability/Toxicity: Ocular exams, including slit lamp biomicroscopy (Zeiss or Haag-Streit), gonioscopy, and binocular indirect ophthalmoscopy (American Optical or Keeler), were performed by a trained ophthalmologist, using when necessary contact lenses specially fabricated for the small monkey eye (Kaufman and Wallow, Exp. Eye Res., 40:883-885[1985]). In addition, specular microscopy was used to evaluate drug effects on the corneal endothelium.
The AC of both eyes of was cannulated with a branched needle as above, after which baseline facility measurements were taken for 35-45 min. With reservoirs closed, 2×5 μl drops of 200 μM (˜0.8 μg) or 4×5 μl drops of 500 μM (˜4.0 μg) LAT-B were given to one eye of the prone monkey, allowing 60-90 sec between drops. […] Vehicle (10 or 25% DMSO respectively) was given simultaneously to the opposite eye in a similar manner. The doses were chosen to give […] and 1 μM LAT-B concentrations respectively in the 100 μl monkey AC (See e.g., Erickson-Lamy et al., Arch. Opthalmol., 102:1815-1820[1984]), assuming 1% penetration and no initial drug loss from the AC (Asseff et al., Amer. J. Ophthalmol., 75:212-215[1973]; Harris, in Leopold (ed.), Symposium on Ocular Therapy, C. V. Mosby, St. Louis, Mo., [1968], pp. 96-105; Janes and Stiles, Arch. Ophthahnol., 62:69-74[1959]). The perfusion system remained closed for 2 hr, after which facility measurements were taken for 90 min. Biomicroscopy was performed by an ophthalmologist before and 3, 7 and 14 days after drug administration.
For slit lamp biomicroscopy, a trained ophthalmologist examined all eyes by slit lamp, for integrity of the corneal epithelium and endothelium, presence of flare or cells in the anterior chamber and clarity of the lens. All animals were free of ocular abnormalities when studied.

corneal endothelium = settings: for Cell count Exp, drug eye / Cell count Exp, drug/Vehicle / Cell count Exp, drug−Vehicle / Cell count Exp/BL, drug eye / Cell count Exp/BL, drug/Vehicle / Cell count Exp/BL, drug−Vehicle: 21 μg LAT-A topical, n=4
[3] = tested on: ciliary muscle-disinserted monkey eyes; assay: Outflow facility in ciliary muscle-disinserted eyes; format: in vivo, cynomolgus and rhesus monkeys
living monkey eyes [4] = assay: Blood-aqueous barrier permeability to systemic fluorescein; format: in vivo, cynomolgus monkeys (Macaca fascicularis); settings: 42 μg LAT-A topical
Procedure: Topical LAT-A (42 μg) was given to one eye and vehicle to the opposite eye as described above, 1 hr prior to intravenous injection of fluorescein Na in the saphenous vein (10 mg/kg in 500-600 μl) followed by a 4 ml saline flush. The concentration of fluorescein ([fluorescein]) in the cornea and AC was determined by fluorophotometry 15, 30, 45, 60, 90, 120, 180 and 240 min after fluorescein injection.

C/C1=C/C(=O)O[C@@H]2C[C@@H](CC[C@H](C)/C=C\C=C\CC1)O[C@@](O)([C@@H]1CSC(=O)N1)C2 [LAT-A]
BL2/BL1, Rx eye (living monkey eye): 1.24 ± 0.19 | BL2/BL1, Rx/Cont (living monkey eye): 1.12 ± 0.15 | Baseline facility BL2, Rx eye (living monkey eye): 0.42 ± 0.06 μl/min/mmHg | Baseline facility BL2, Rx/Cont (living monkey eye): 1.07 ± 0.17 | effect on facility (living monkey eye): probably ineffective | reversibility of the facility-effect (living monkey eye): minimal | effects on actin filaments and C-C adhesions ([1]; concentrations greater than 0.5 μM, 1 hour of exposure): unequivocal effects | effects on actin filaments and C-C adhesions ([1]; lower concentrations): more subtle slower onset effects | lens appearance (living monkey eyes [2]; after topical drug): always appeared normal | corneal epithelium at slit lamp (living monkey eyes [2]; topical LAT-A (21 or 42 μg) or LAT-B (4 μg) in 25% DMSO): mild transient corneal epithelial cloudiness | eyes that developed flare (1-2+ on a scale of 0-4+) (living monkey eyes [2]; topical, recovered by 24-48 hr): Four LAT-A- treated eyes | Cell count Exp, drug eye (corneal endothelium; 3 days): 2488 ± 63 cell per square millimeter | Cell count Exp, drug/Vehicle (corneal endothelium; 3 days): 1.02 ± 0.03 | Cell count Exp, drug−Vehicle (corneal endothelium; 3 days): 44 ± 62 cell per square millimeter | Cell count Exp/BL, drug eye (corneal endothelium; 3 days): 0.98 ± 0.01 | Cell count Exp/BL, drug/Vehicle (corneal endothelium; 3 days): 1.06 ± 0.02 | Cell count Exp/BL, drug−Vehicle (corneal endothelium; 3 days): 0.05 ± 0.10 | Cell count Exp, drug eye (corneal endothelium; 7 days): 2488 ± 97 cell per square millimeter | Cell count Exp, drug/Vehicle (corneal endothelium; 7 days): 0.98 ± 0.06 | Cell count Exp, drug−Vehicle (corneal endothelium; 7 days): −69 ± 140 cell per square millimeter | Cell count Exp/BL, drug eye (corneal endothelium; 7 days): 0.98 ± 0.03 | Cell count Exp/BL, drug/Vehicle (corneal endothelium; 7 days): 1.02 ± 0.08 | Cell count Exp/BL, drug−Vehicle (corneal endothelium; 7 days): 0.01 ± 0.07 | Cell count Exp, drug eye (corneal endothelium; 14 days): 2694 ± 28 cell per square millimeter | Cell count Exp, drug/Vehicle (corneal endothelium; 14 days): 1.01 ± 0.06 | Cell count Exp, drug−Vehicle (corneal endothelium; 14 days): 0 ± 147 cell per square millimeter | Cell count Exp/BL, drug eye (corneal endothelium; 14 days): 1.06 ± 0.03 | Cell count Exp/BL, drug/Vehicle (corneal endothelium; 14 days): 1.04 ± 0.03 | Cell count Exp/BL, drug−Vehicle (corneal endothelium; 14 days): 0.04 ± 0.03 | cell densities vs baseline (corneal endothelium; 21 μg LAT-A, day 3): essentially the same as at baseline | cell densities vs baseline or contralateral eyes (corneal endothelium; 42 μg LAT-A, day 3): slightly (but not significantly) lower cell densities than baseline or contralateral eyes | cell density and morphology (corneal endothelium; LAT-A either dose, day 7): cell density and morphology had returned to baseline | countability of corneal endothelial cells (corneal endothelium; either dose of LAT-A (21 or 42 μg), 1 or 3 hr): could not be counted | facility increase, control (non-disinserted) eyes ([3]; Lat-A 5.0 μM): 328±35% | Facility PRx, CM Dis eye ([3]; Lat-A 5.0 μM OU, n=9): 0.65 ± 0.23 μl/min/mmHg | Facility PRx, CM Dis/Cont ([3]; Lat-A 5.0 μM OU, n=9): 0.43 ± 0.15 | Facility PRx, Cont (non-disinserted, drug-treated) eye ([3]; Lat-A 5.0 μM OU, n=9): 1.51 ± 0.30 μl/min/mmHg | PRx/BL, CM Dis eye ([3]; Lat-A 5.0 μM OU, n=9): 4.53 ± 1.29 | PRx/BL, CM Dis/Cont ([3]; Lat-A 5.0 μM OU, n=9): 1.06 ± 0.27 | PRx/BL, Cont (non-disinserted, drug-treated) eye ([3]; Lat-A 5.0 μM OU, n=9): 4.28 ± 0.35 | facility increase, ciliary muscle-disinserted eyes ([3]; Lat-A 5.0 μM, n=9): 353±129% | [fluorescein]cornea, LAT-A-treated vs vehicle-treated eyes (living monkey eyes [4]; 15 min after i.v. fluorescein (1.25 hr after LAT-A)): ~10 times | [fluorescein]cornea, LAT-A-treated vs vehicle-treated eyes (living monkey eyes [4]; 240 min after i.v. fluorescein): ~1.5 times | [Fluorescein]AC higher in LAT-A eyes than in vehicle-treated eyes (living monkey eyes [4]; 240 min after i.v. fluorescein, n=4): 24±3%
